# In patent publication US3989746A, “Substituted naphthyl anthranilic acids” (Ikeda Mohando Co., Ltd., priority 1972, dated 1976):
# What was measured:
# Ultraviolet erythema = test: Ultraviolet erythema; type: in vivo, guinea pigs (male, Hartley type); conditions: 10 mg/Kg oral, 1 h before irradiation, read 3 h after irradiation; for inhibition in vivo at 10 mg/kg: Cavia porcellus, light or radiation study, read-out: Anti-Inflammatory Effect Control Ratio, Ultraviolet Erythema
# Protocol: The test was conducted according to a modification of the method of C. […] Groups of guinea pigs (male guinea pigs of the Hartley type having a body weight of 300 to 450 g), each group consisting of 5 to 10 guinea pigs, were employed for the test. Hairs were removed from backs of the guinea pigs by an electric hair-clipper and a depilatory agent. The guinea pigs were caused to abstain from food for 18 to 19 hours, and a test compound was orally administered in an amount of 10 mg/Kg in the form suspended in a 4% gum arabic liquor. In the case of control groups, only a 4% gum arabic liquor was administered. An adhesive plaster according to the Japanese pharmacopoeia, on which three small holes having a diameter of 5 mm were opened, was applied to the hair-removed portion of the back. […] When 3 hours had passed from the irradiation, the degree of the formation of erythema was determined. One point was given to the guinea pig on which a definite round erythema was formed, a point of 0.5 was given to the guinea pig on which formation of erythema was observed but its contour was not definite, and a point of 0 was given to the guinea pig on which no erythema was formed. Total points were calculated in both the test compound-administered group and the control group, and the control ratio was calculated from these total points. [formula]
# inflammatory pain = test: Analgesic effect on inflammatory pain (modified Randall and Selitto); type: in vivo, rats (male, Wister type); conditions: 100 mg/Kg oral, 1 hour before carragheenin; pain measured 3 hours after injection
# Protocol: Groups of male rats of the Wister type having a body weight of about 150 g were tested, each group consisting of 5 rats. The rats were caused to abstain from food overnight, and 0.05 ml of a 1% carragheenin solution was hypodermically injected into the right hind leg of each rat. […] The test compound was orally administered in a dosage of 100 mg/Kg 1 hour before the injection of carragheenin. [formula]
# Adjuvant arthritis = test: Adjuvant arthritis; type: in vivo, rats (female, Wister type); conditions: 9 mg/Kg per day oral for 25 days, foot volume on 23rd day from adjuvant injection; for inhibition in vivo at 9 mg/kg: Rattus norvegicus, 552 h, read-out: Anti-Inflammatory Effect Control Ratio, Adjuvant Arthritis
# Protocol: With respect to the foregoing compounds, anti-inflammatory effects against carragheenin foot edema, ultraviolet erythema and adjuvant arthritis were tested by using rate according to the following methods to obtain results shown below.
# The test was conducted according to a modification of the method of B. B. Newbould (Brit. J. Pharmacol., 21, 127 (1963)). Groups of female rats of the Wister type having a body weight of 180 - 240 g, each group consisting of 4 to 8 rats, were tested. 0.05 ml of an adjuvant (formed by suspending 5 mg of dead tuberculous bacillus, Aoyama B strain, in 1 ml of fluid paraffin according to the Japanese pharmacopoeia) was hypodermically injected in the right foot heel of each rat. A test compound was orally administered in a dosage of 9 mg/Kg per day in the form suspended in a 5% gum arabic liquor continuously for 25 days from one day before the injection of the adjuvant. In the case of the control group, only a 5% gum arabic liquor was continuously administered in the same manner. The volume of the right foot was measured 1 day before the injection of the adjuvant and on the 23rd day from the injection of the adjuvant with respect to each group. Thus, the increase of the foot volume was calculated in either the test compound-administered group or the control group, and the ratio of control of the adjuvant arthritis was calculated according to the following formula: [formula] in which C is the increase of the volume of the right foot in the control group and D indicates the increase of the volume of the right foot in the test compound-administered rat group.
# male mice = test: in vivo; conditions: 7 days
# Protocol: (§1) With respect to the foregoing test compounds, the acute toxicity was examined by employing mice according to the following method.
# (§2) Groups of male mice of the dd type having a body weight of 18 to 22 g, each, group consisting of 5 mice, were tested to determine the acute toxicity. The test compound was orally administered in a dosage indicated in Table 3a in the form suspended in 5% gum arabic liquor. The determination was conducted 7 days after the administration. Further, the LD50 values were calculated according to the method of Lichfield-Wilcoxon.
# Carragheenin foot edema = test: Carragheenin foot edema; type: in vivo, rats (male, Wister type); conditions: 100 mg/Kg oral, 1 h before carragheenin, foot volume 3 h after injection; for inhibition in vivo at 100 mg/kg: Rattus norvegicus, read-out: Anti-Inflammatory Effect Control Ratio, Carragheenin Foot Edema
# Protocol: a. Carragheenin food edema
# The test was conducted according to the method of C. […] Groups of rats (male rats of the Wister type having a body weight of 140-170 g), each group consisting of 5 to 11 rats, were caused to abstain from food for 16 hours, and a 4% gum arabic suspension of a test compound was orally administered to the rats in an amount of 100 mg/Kg. of the test compounds. Immediately, rats were allowed to drink 5 ml of purified water. […] After 3 hours had passed from the injection, the volume of the right foot was measured again to determine the increase of the volume of the right foot. In control groups, only a 4% gum arabic liquor free of a test compound was orally administered, and subsequent procedures were conducted similarly to determine the increase of the volume of the right foot. The carragheenin foot edema control ratio was calculated according to the following formula: [formula] wherein C indicates the foot volume increase in the control group and D indicates the foot volume increase in the test compound-administered group.
# in vivo [1] = conditions: rat, po
# in vivo [2] = conditions: mouse, in vivo, po
# Protocol: as §1, §2
Structure (SMILES),inhibition in vivo at 10 mg/kg (Ultraviolet erythema) [%],Analgesic Coefficient (inflammatory pain),inhibition in vivo at 9 mg/kg (Adjuvant arthritis) [%],Number of Dead Mice/Number of Mice Tested (male mice; 1 g/kg oral),Number of Dead Mice/Number of Mice Tested (male mice; 2 g/kg oral),Number of Dead Mice/Number of Mice Tested (male mice; 3 g/kg oral),Number of Dead Mice/Number of Mice Tested (male mice; 4 g/kg oral),inhibition in vivo at 100 mg/kg (Carragheenin foot edema) [%],"Anti-Inflammatory Effect Control Ratio, Ultraviolet Erythema (Ultraviolet erythema) [%]","Anti-Inflammatory Effect Control Ratio, Adjuvant Arthritis (Adjuvant arthritis) [%]","Anti-Inflammatory Effect Control Ratio, Carragheenin Foot Edema (Carragheenin foot edema) [%]",LD50 (in vivo [1]) [mg/kg],LD50 at 168 h (in vivo [2]) [mg/kg]
"O=C(O)c1ccccc1Nc1c(Cl)cc(Br)c2ccccc12 [Compound 8, N-(2-chloro-4-bromo-1-naphthyl)anthranilic acid]",77.3,1.72,31.2,0 / 5,0 / 5,0 / 5,4 / 5,27.6,–,–,–,–,–
"CC(C)Cc1ccc(Nc2ccccc2C(=O)O)c2ccccc12 [4 iso Butyl-, N-(4-isobutyl-naphthyl-1)anthranilic acid]",–,1.37,–,0 /10,0 /10,2 /10,–,–,43.8,31.0,41.9,–,–
CCCCc1ccc2ccccc2c1Nc1ccccc1C(=O)O [N-(2-butyl-naphthyl-1-anthranilic acid],50.3,1.38,26.2,0 /10,0 /10,0 /10,–,31,–,–,–,–,–
"O=C(O)c1ccccc1Nc1c(F)ccc2ccccc12 [Compound 4, N-(2-fluoro-1-naphthyl)anthranilic acid]",48.7,1.60,50,0 / 5,0 / 5,5 / 5,5 / 5,27.6,–,–,–,–,–
"O=C(O)c1ccccc1Nc1ccc(Cl)c2ccccc12 [Compound 1, n-(4-chloro-1-naphthyl)anthranilic acid]",38,1.36,7.5,0 / 5,0 / 5,0 / 5,3 / 5,25.7,–,–,–,> 10000,> 12000
"O=C(O)c1ccccc1Nc1cc(F)cc2ccccc12 [Compound 7, N-(3-fluoro-1-naphthyl)anthranilic acid]",44,1.70,36.1,–,1 / 5,5 / 5,–,35.4,–,–,–,–,–
"O=C(O)c1ccccc1Nc1c(Cl)cc(Cl)c2ccccc12 [Compound 2, N-(2,4-dichloro-1-naphthyl)anthranilic acid]",68.9,1.70,53.5,0 / 5,0 / 5,0 / 5,0 / 5,27,–,–,–,8500,> 12000
"O=C(O)c1ccccc1Nc1c(Cl)ccc2ccccc12 [Compound 3, N-(2-chloro-1-naphthyl)anthranilic acid]",66.7,1.62,36.9,0 / 5,2 / 5,4 / 5,5 / 5,46.6,–,–,–,–,–
"CCCCCCc1ccc2ccccc2c1Nc1ccccc1C(=O)O [2 Hexyl-, N-(2-n-hexyl-naphthyl-1)anthranilic acid]",44,1.28,–,0 /10,0 /10,0 /10,–,8.5,–,–,–,–,–
"Cc1cc(Nc2ccccc2C(=O)O)c2ccccc2c1C [Compound 6, N-(3,4-dimethyl-1-naphthyl)anthranilic acid]",17.1,1.28,17.2,0 / 5,2 / 5,5 / 5,5 / 5,47.1,–,–,–,–,–
CCCCc1ccc(Nc2ccccc2C(=O)O)c2ccccc12 [4 Butyl-],–,1.41,–,0 /10,0 /10,5 /10,–,–,22.3,1.3,16.8,–,–
"O=C(O)c1ccccc1Nc1cc(Cl)cc2ccccc12 [Compound 5, N-(3-chloro-1-naphthyl)anthranilic acid]",40,1.31,41.4,0 / 5,0 / 5,4 / 5,5 / 5,31.4,–,–,–,–,–
CCc1ccc(Nc2ccccc2C(=O)O)c2ccccc12 [4 Ethyl-],–,1.20,–,0 /10,2 /10,4 /10,–,–,60.0,21.5,46.2,–,–
"Cc1cc(Nc2ccccc2C(=O)O)c2ccccc2c1 [Compound 9, N-(3-methyl-1-naphthyl)anthranilic acid]",46.3,–,–,0 / 5,3 / 5,5 / 5,–,44.3,–,–,–,–,–
"Cc1cccc(Nc2ccccc2C(=O)O)c1C [Compound M, mefenamic acid, reference compound]",38.1,1.50,48.1,5 / 5,5 / 5,–,–,50.6,–,–,–,–,–
